Laboratory results as given in patent publication US20230310388A1, “Methods and Compositions for Treating Fungal Infections” (Neoculi Pty Ltd, priority 2020, published 2023).
Values after ≈ are worked out from the molar mass of the structure shown. Values joined by “and” are separate entries in the source; they are usually repeats but may differ in a detail not shown here. Equal entries are not always repeated. Where two headings read alike, the source gives them in different places.

Assays:
C. gattii = test: CLSI broth microdilution MIC (Example 6); format: cell-based, Cryptococcus gattii
Summary of the method: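 CLSI broth microdilution in RPMI 1640, compounds serially double-diluted, inoculum about 2×10^3 cells/mL. Incubation at 35° C for 24-48 hours. MICs determined per isolate in duplicate, with a third repeat if values differed.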

Candida albicans [1] = test: CLSI broth microdilution MIC (Example 5); format: cell-based
Summary of the method: (§1)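 Broth microdilution per CLSI in RPMI 1640 with twofold compound dilutions, inoculum about 2×10^3 cells/mL. Plates incubated at 35° C for 24-48 hours. MIC determined per isolate in duplicate, with a third repeat when the two values differed.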

Cryptococcus neoformans [2] = test: CLSI broth microdilution MIC (Example 5); format: cell-based
Summary of the method: as §1

Candida albicans [3] = test: CLSI broth microdilution MIC (Example 4); format: cell-based; conditions: for antifungal activity against the two isolates of Candida albicans: summary in words
Summary of the method: (§2)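 CLSI broth microdilution in RPMI 1640 with two-fold compound dilutions and inoculum about 2×10^3 cells/mL. Plates incubated 35° C for 24-48 hours; MICs determined in duplicate, with a third test when the duplicates differed.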

Cryptococcus neoformans [4] = test: CLSI broth microdilution MIC (Example 4); format: cell-based
Summary of the method: as §2

Candida albicans [5] = test: CLSI broth microdilution MIC (Example 3); format: cell-based
Experimental: (§3) Antifungal minimum inhibitory concentration (MIC) testing was undertaken as recommended by the CLSI. Briefly, antifungal susceptibility tests were performed for amphotericin B, robenidine (NCL812) and 5 robenidine analogs (NCL062, NCL195, NCL219, NCL259, NCL265) by standard broth microdilution method (CLSI) in RPMI 1640. Various concentrations (ranging from high to low) of the selected compounds were prepared in RPMI 1640 medium by double dilution in 96-well microtitre plates. Each well contained an inoculum of approximately 2×10^3 cells/mL. The wells without addition of drugs served as negative (no inoculum) and positive (inoculum only) growth controls. Microtitre plates were incubated at 35° C. for 24-48 hours. […] Antifungal MICs were determined for each isolate in duplicate; if the values obtained were different, the MIC test was repeated a third time. Antifungal susceptibility tests were performed for amphotericin B and NCL analogs by standard broth microdilution method (CLSI). Briefly, various concentrations (ranging from high to low) of the selected compounds were prepared in RPMI 1640 medium by double dilution in the 96-well plates. Each well contained an inoculum of approximately 2×10^3 cells/mL. The wells without addition of drugs served as a negative control. Micro plates were incubated at 35° C. for 48 hour and read spectrophotometrically at 600 nm, using a microplate reader (Multiskan-EX; Thermo Elect. Corp., USA).

Candida parapsilosis = test: CLSI broth microdilution MIC (Example 3); format: cell-based; conditions: Candida parapsilosis ATCC 22019
Experimental: as §3

[6] = tested on: Candida albicans ATCC14053; test: Broth micro-dilution screen at 16 μg/mL and MIC (Example 9); format: cell-based; conditions: for MIC: C. albicans ATCC14053, test range 0.25-64 μg/mL, duplicate; for Screen at 16 μg/mL: single concentration 16 μg/mL, Growth or No growth of C. albicans ATCC14053
Experimental: The antifungal activity of 201 NCL analogs against Candida albicans ATCC14053 in vitro was investigated. A broth micro-dilution method was used, according to CLSI guidelines as described. NCL analogs were dissolved in DMSO and originally screened at a single concentration of 16 μg/mL.

[7] = human clinical isolate C. gattii 16-90050373
[8] = human clinical isolate C. gattii 17-90028211

Cc1ccc(/C=N/Nc2cc(N/N=C/c3ccc(C)cc3)nc(N)n2)cc1 [NCL195]
MIC (C. gattii; human clinical isolate C. gatti 17-90232099): 2 µg/mL (≈ 5.56 µM)
MIC (C. gattii; [7]): 2 µg/mL (≈ 5.56 µM)
MIC (C. gattii; [8]): 2 µg/mL (≈ 5.56 µM)
MIC (C. gattii; human clinical isolate C. gattii 17-90028217): 2 µg/mL (≈ 5.56 µM)
MIC (C. gattii; human clinical isolate C. gattii 17-90028242): 2 µg/mL (≈ 5.56 µM)
MIC (Candida albicans [1]; C. albicans SA3): 2 µg/mL (≈ 5.56 µM)
MIC (Candida albicans [1]; Candida albicans ATCC 90028): 2 µg/mL (≈ 5.56 µM)
MIC (Candida albicans [1]; clinical isolate C. albicans 12-93301752 Azole Resistant): 4 µg/mL (≈ 11.1 µM)
MIC (Candida albicans [1]; clinical isolate C. albicans 14-90045999 Azole Resistant): >16 µg/mL
MIC (Candida albicans [1]; clinical isolate C. albicans 15-45171061): 8 µg/mL (≈ 22.3 µM)
MIC (Candida albicans [1]; clinical isolate C. albicans 15-91329871): 8 µg/mL (≈ 22.3 µM)
MIC (Candida albicans [1]; clinical isolate C. albicans 16-24136919 Azole Resistant): 4 µg/mL (≈ 11.1 µM)
MIC (Candida albicans [1]; clinical isolate C. albicans 16-46177400): 4 µg/mL (≈ 11.1 µM)
MIC (Candida albicans [1]; clinical isolate C. albicans 16-90050810): 4 µg/mL (≈ 11.1 µM)
MIC (Candida albicans [1]; clinical isolate C. albicans 16-90054237): 4 µg/mL (≈ 11.1 µM)
MIC (Candida albicans [1]; clinical isolate C. albicans 18-144-00196): 4 µg/mL (≈ 11.1 µM)
MIC (Candida albicans [1]; clinical isolate C. albicans 18-148-08188 Azole Resistant): >16 µg/mL
activity against one or more isolates of Cryptococcus neoformans and Candida albicans (Candida albicans [1]; summary in words): highly active
MIC (Cryptococcus neoformans [2]; Cryptococcus neoformans SA1): 2 µg/mL (≈ 5.56 µM)
MIC (Cryptococcus neoformans [2]; Cryptococcus neoformans SA2): 2 µg/mL (≈ 5.56 µM)
MIC at 24-48 hours (Candida albicans [3]; Candida albicans ATCC 90028): 2 µg/mL (≈ 5.56 µM)
MIC at 24-48 hours (Candida albicans [3]; Candida albicans SA3): 2 µg/mL (≈ 5.56 µM)
antifungal activity against the two isolates of Candida albicans (Candida albicans [3]): high antifungal activity
MIC at 24-48 hours (Cryptococcus neoformans [4]; Cryptococcus neoformans SA1): 2 µg/mL (≈ 5.56 µM)
MIC at 24-48 hours (Cryptococcus neoformans [4]; Cryptococcus neoformans SA2): 2 µg/mL (≈ 5.56 µM)
MIC (Candida albicans [5]; Candida albicans ATCC 90028, 1st): 2 µg/mL (≈ 5.56 µM)
MIC (Candida albicans [5]; Candida albicans ATCC 90028, 2nd): 2 µg/mL (≈ 5.56 µM)
MIC (Candida albicans [5]; Candida albicans, 1st): 2 µg/mL (≈ 5.56 µM)
MIC (Candida albicans [5]; Candida albicans, 2nd): 2 µg/mL (≈ 5.56 µM)
MIC (Candida parapsilosis; 1st): 1 µg/mL (≈ 2.78 µM)
MIC (Candida parapsilosis; 2nd): 2 µg/mL (≈ 5.56 µM)
MIC [6]: 1 µg/mL and 2 µg/mL
Screen at 16 μg/mL [6]: No growth

N=C(N/N=C/c1ccc(Cl)cc1)N/N=C/c1ccc(Cl)cc1 [NCL812, robenidine, reference compound]
MIC (C. gattii; Cryptococcus gattii, human clinical isolate C. gattii 17-90028217, read-out: MIC): 16 µg/mL (≈ 47.9 µM)
MIC (C. gattii; [7]): 16 µg/mL (≈ 47.9 µM)
MIC (C. gattii; [8]): 16 µg/mL (≈ 47.9 µM)
MIC (Candida albicans [1]; Candida albicans, ATCC90028, Candida albicans ATCC 90028, read-out: MIC): 2 µg/mL (≈ 5.98 µM)
MIC (Candida albicans [1]; Candida albicans, clinical isolate C. albicans 12-93301752 Azole Resistant, read-out: MIC): 2 µg/mL (≈ 5.98 µM)
MIC (Candida albicans [1]; Candida albicans, clinical isolate C. albicans 14-90045999 Azole Resistant, read-out: MIC): 2 µg/mL (≈ 5.98 µM)
MIC (Candida albicans [1]; Candida albicans, clinical isolate C. albicans 15-45171061, read-out: MIC): 1 µg/mL (≈ 2.99 µM)
MIC (Candida albicans [1]; Candida albicans, clinical isolate C. albicans 15-91329871, read-out: MIC): 2 µg/mL (≈ 5.98 µM)
MIC (Candida albicans [1]; Candida albicans, clinical isolate C. albicans 16-24136919 Azole Resistant, read-out: MIC): 2 µg/mL (≈ 5.98 µM)
MIC (Candida albicans [1]; Candida albicans, clinical isolate C. albicans 16-46177400, read-out: MIC): 4 µg/mL (≈ 12 µM)
MIC (Candida albicans [1]; Candida albicans, clinical isolate C. albicans 16-90050810, read-out: MIC): 2 µg/mL (≈ 5.98 µM)
MIC (Candida albicans [1]; Candida albicans, clinical isolate C. albicans 16-90054237, read-out: MIC): 2 µg/mL (≈ 5.98 µM)
MIC (Candida albicans [1]; Candida albicans, clinical isolate C. albicans 18-144-00196, read-out: MIC): 0.5 µg/mL (≈ 1.5 µM)
MIC (Candida albicans [1]; Candida albicans, clinical isolate C. albicans 18-148-08188 Azole Resistant, read-out: MIC): 1 µg/mL (≈ 2.99 µM)
MIC (Candida albicans [1]; Candida albicans, C. albicans SA3, read-out: MIC): 2 µg/mL (≈ 5.98 µM)
activity against all tested isolates of Cryptococcus neoformans and Candida albicans (Candida albicans [1]; summary in words): active
activity against one or more isolates of Cryptococcus neoformans and Candida albicans (Candida albicans [1]; summary in words): highly active
MIC (Cryptococcus neoformans [2]; Cryptococcus neoformans SA1, read-out: MIC): 2 µg/mL (≈ 5.98 µM)
MIC (Cryptococcus neoformans [2]; Cryptococcus neoformans SA2): 2 µg/mL (≈ 5.98 µM)
MIC (Candida albicans [3]; ATCC90028, read-out: MIC at 24-48 hours, Candida albicans ATCC 90028): 2 µg/mL (≈ 5.98 µM)
MIC (Candida albicans [3]; read-out: MIC at 24-48 hours, Candida albicans SA3): 2 µg/mL (≈ 5.98 µM)
antifungal activity against the two isolates of Candida albicans (Candida albicans [3]): high antifungal activity
MIC at 24-48 hours (Cryptococcus neoformans [4]; Cryptococcus neoformans SA2): 2 µg/mL (≈ 5.98 µM)
MIC (Cryptococcus neoformans [4]; read-out: MIC at 24-48 hours, Cryptococcus neoformans SA1): 2 µg/mL (≈ 5.98 µM)
MIC (Cryptococcus neoformans [4]; two isolates of Cryptococcus neoformans, summary range, read-out: MICs): 1 to 16 µg/mL (≈ 2.99 to 47.9 µM)
MIC (Candida albicans [5]; Candida albicans, ATCC90028, Candida albicans ATCC 90028, 1st, read-out: MIC): 0.25 µg/mL (≈ 0.748 µM)
MIC (Candida albicans [5]; Candida albicans, ATCC90028, Candida albicans ATCC 90028, 2nd, read-out: MIC): 0.5 µg/mL (≈ 1.5 µM)
MIC (Candida albicans [5]; Candida albicans, two Candida albicans and one Candida parapsilosis isolates, summary range, read-out: MIC): 0.5 to 8 µg/mL (≈ 1.5 to 23.9 µM)
MIC (Candida albicans [5]; Candida albicans, 1st, read-out: MIC): 0.5 µg/mL (≈ 1.5 µM)
MIC (Candida albicans [5]; Candida albicans, 2nd, read-out: MIC): 1 µg/mL (≈ 2.99 µM)
MIC (Candida parapsilosis; 2nd): 0.5 µg/mL (≈ 1.5 µM)
MIC (Candida parapsilosis; Lodderomyces parapsilosis, ATCC22019, 1st, read-out: MIC): 0.5 µg/mL (≈ 1.5 µM)
activity against Candida albicans at the low discriminating concentration ([6]; 16 μg/mL screen, summary in words): high activity
MIC ([6]; Candida albicans, read-out: MIC): 0.5 µg/mL (≈ 1.5 µM)
Screen at 16 μg/mL [6]: No growth
